{
  "source": "patent US9526740B2",
  "about": "“Prochelators as broad-spectrum antimicrobial agents and methods of use” (Duke University, priority 2013, dated 2016)",
  "key": {"C. neoformans H99 strain [1]": {"test_system": "C. neoformans H99 strain", "assay": "C. neoformans growth inhibition (OD600 growth curves, MIC)", "type": "cell-based, Cryptococcus neoformans", "details": "for MIC: Cryptococcus neoformans, H99STRAIN, growth inhibition of C. neoformans, no Cu added; for C. neoformans growth with Cu, without H2O2: SC media + 10 μM CuSO4, no H2O2", "procedure": "(§1) Top: Growth of C. neoformans H99 strain in SC media monitored by optical density (OD) over the course of 50 hours, where an increase in OD600 indicates normal growth. […] Bottom: In a follow up experiment to the growth curve assay shown on top, samples were taken after 50 h and plated to determine colony-forming units (CFUs).\nThe ability of 8-HQ to inhibit C. neoformans growth was tested with respect to metal specificity. The concentration of the indicated metals was held constant at 10 μM and cells were incubated in the presence of escalating doses of 8HQ from 0 to 50 μM. Growth was monitored over a time course in hours (x-axis) and the optical density at 600 nm was plotted at each time (y-axis).\nWT C. neoformans H99 strain was grown in SC media+/−10 μM CuSO4 and 8HQ or QBP at indicated concentrations. Growth was monitored by OD600 and normalized to 100% viability for untreated controls after 50 h at 30° C."}, "[2]": {"test_system": "MT1 gene in WT C. neoformans", "assay": "MT1 gene expression by qPCR normalized to ACT1", "type": "cell-based, Cryptococcus neoformans", "details": "30 min; for MT1 induction, compound alone: 10 μM compound, no Cu", "procedure": "FIG. 6 is a graph showing Cu+8HQ (not QBP) increase expression levels of the MT1 gene. An overnight growth of WT C. neoformans was diluted in SC media to an OD600 of 0.2, incubated for 3 h to begin log phase growth, and treated with Cu and/or compound as indicated. After 30 min, cells were harvested and RNA was extracted, with subsequent RT-PCR to produce cDNA. Fold-change of MT1 was quantified using qPCR and normalized to ACT1. The strength of MT1 induction increases with [Cu].\n5. 8HQ Increases the Cu Burden on C. neoformans. Our working hypothesis for the mechanism of action of 8HQ is that it increases the microbial burden of bioreactive Cu. If 8HQ translocates Cu into the cell in a bioavailable form, we would expect expression levels of proteins involved in Cu homeostasis to be sensitive to that influx. […] Metallothionein proteins are known to detoxify Cu and other metals by encasing them within cysteine-rich coordination sites. Increased expression of MT1 is consistent with our hypothesis that 8HQ increases bioavailable Cu, which is sensed by the cell in the form of MT1 transcription."}, "S. aureus": {"test_system": "S. aureus", "assay": "S. aureus dose response in tryptic soy broth", "type": "cell-based", "details": "no supplemental Cu", "procedure": "FIG. 8 is a graph showing that S. Aureus dose response to 8HQ and QBP. Under these conditions, 8HQ inhibits S. Aureus growth at concentrations above ˜150 μM, whereas QBP in nontoxic up to ˜2.5 mM. Supplemental Cu was not added in these experiments, so presumably 8HQ is using Cu present in the tryptic soy broth medium.\n(§2) 6. Broad Spectrum Activity The antimicrobial properties of oxine (8HQ) against a broad spectrum of fungal and bacterial pathogens has long been recognized. Taking advantage of this cytotoxic activity while minimizing damage to the host has prevented the application of these compounds to combat infectious disease in humans. […] We tested this hypothesis by comparing the cytotoxicity of 8HQ vs QBP against other microbes. Preliminary results indeed show a differential cytotoxicy of 8HQ vs QBP in S. aureus (FIG. 8), E. coli (FIG. 9) and M. marinum (data not shown). In these preliminary results, supplemental Cu was not added to the growth media, so presumably 8HQ uses the basal Cu present in the media to inflict its growth inhibitory action."}, "E. coli": {"test_system": "E. coli", "assay": "E. coli dose response in M9 minimal medium", "type": "cell-based", "details": "no supplemental Cu", "procedure": "FIG. 9 is a graph showing that E. coli dose response to 8HQ and QBP. Under these conditions, 8HQ inhibits E. coli growth at concentrations above ˜1.5 mM, whereas QBP in nontoxic up to 10 mM. Supplemental Cu was not added in these experiments, so presumably 8HQ is using Cu present in the M9 minimal medium.\nas §2"}, "[3]": {"assay": "Tolerability of intraperitoneal administration to mice", "type": "in vivo", "details": "2 mg/kg or 10 mg/kg every second day over a two-week period", "from_the_text": "4. Toxicity of Prochelator is Activated by H2O2."}, "M. marinum": {"test_system": "M. marinum", "assay": "M. marinum cytotoxicity comparison (data not shown)", "type": "cell-based", "details": "no supplemental Cu, preliminary", "from_the_text": "6. Broad Spectrum Activity The antimicrobial properties of oxine (8HQ) against a broad spectrum of fungal and bacterial pathogens has long been recognized. Taking advantage of this cytotoxic activity while minimizing damage to the host has prevented the application of these compounds to combat infectious disease in humans."}, "C. neoformans H99 strain [4]": {"test_system": "C. neoformans H99 strain", "assay": "C. neoformans growth inhibition (OD600 growth curves, MIC)", "type": "cell-based, Cryptococcus neoformans", "details": "for Growth inhibition of C. neoformans in the presence of 1 mM CuSO4: QBP up to the 100 μM dose tested; for MIC: Cryptococcus neoformans, H99STRAIN"}, "[5]": {"details": "in vitro; 25° C.; cited from earlier work"}, "[6]": {"test_system": "murine macrophage-like J774A.1 cells", "assay": "Viability of macrophage-like cells (CellTiter-Glo)", "method": "Cells were seeded at 1×10^5 cells/mL in 96-well plate in DMEM+10% FBS, incubated at 37° C. for 12 h, and assayed for viability with CellTiter-Glo®."}, "[7]": {"test_system": "IFN-γ and LPS-activated primary bone marrow derived macrophage cells (BMM)", "assay": "Viability of activated primary bone marrow derived macrophages", "details": "doses up to 50-100 μM, even with supplemental Cu; data not shown"}, "C. neoformans H99 strain [8]": {"test_system": "C. neoformans H99 strain", "details": "10 μM or higher 8HQ in the presence of 10 μM CuSO4", "procedure": "as §1"}, "[9]": {"test_system": "C. neoformans CTR1/4Δ strain", "details": "YPEG media without Cu supplementation", "procedure": "(§3) FIG. 7 is a graph showing the Effects of 8HQ on growth of C. neoformans mutants. A) WT C. neoformans and a MT1/2Δ[…], strain were grown in SC media with 10 μM CuSO4 and increasing [8HQ]."}, "[10]": {"test_system": "C. neoformans MT1/2Δ strain", "details": "SC media with 10 μM CuSO4", "procedure": "as §3"}, "[11]": {"details": "doses up to 50-100 μM, even with supplemental Cu"}, "[12]": {"details": "growth inhibition of C. neoformans, * 1 mM Cu2+, read-out: MIC (with added Copper(II) Sulfate)"}},
  "note": "pIC50: −log10 of the molar value. Like-named read-outs stand apart in the source and are kept apart here.",
  "data": [
    {"smiles": "CC1(C)C2CC3OB(c4cccc5cccnc45)O[C@]3(C)C1C2", "note": "(stereo in doubt) [QBP, quinoline boronic ester]", "values": [
      {"measurement": "MIC", "setting": "C. neoformans H99 strain [1]", "result": "> 100", "unit": "µM"},
      {"measurement": "C. neoformans growth with Cu and H2O2", "setting": "C. neoformans H99 strain [1]; QBP/H2O2/Cu, SC media, 50 h at 30° C.", "result": "inhibited cell growth as well as 8HQ/Cu"},
      {"measurement": "C. neoformans growth with Cu, without H2O2", "setting": "C. neoformans H99 strain [1]; 50 h at 30° C.", "result": "did not inhibit cell growth"},
      {"measurement": "Toxicity to C. neoformans", "setting": "C. neoformans H99 strain [1]; [11]", "result": "nontoxic"},
      {"measurement": "MT1 induction, compound alone", "setting": "[2]", "result": "do not cause robust induction of MT1"},
      {"measurement": "MT1 response, QBP+Cu", "setting": "[2]; QBP+Cu (10 μM each)", "result": "responds identically to treatment with 10 μM CuSO4 alone"},
      {"measurement": "Concentration up to which nontoxic to S. aureus", "setting": "S. aureus", "result": "~2.5", "unit": "mM"},
      {"measurement": "Concentration up to which nontoxic to E. coli", "setting": "E. coli", "result": "up to 10 mM"},
      {"measurement": "Adverse effects in mice", "setting": "[3]", "result": "no obvious adverse affects"},
      {"measurement": "Toxicity to M. marinum compared with 8HQ", "setting": "M. marinum", "result": "significantly less toxic"},
      {"measurement": "Growth inhibition of C. neoformans in the presence of 1 mM CuSO4", "setting": "C. neoformans H99 strain [4]", "result": "nontoxic"},
      {"measurement": "MIC", "setting": "C. neoformans H99 strain [4]; [12]", "result": "> 100", "unit": "µM"},
      {"measurement": "Rate constant of conversion to 8HQ upon reaction with H2O2", "setting": "[5]", "result": 0.25, "unit": "M⁻¹ s⁻¹"},
      {"measurement": "Toxicity to J774A.1 cells", "setting": "[6]; [11]", "result": "nontoxic"},
      {"measurement": "Toxicity to BMM", "setting": "[7]", "result": "nontoxic"}
    ]},
    {"smiles": "Oc1ccc2ncccc2c1", "note": "[6HQ, 6-hydroxyquinoline]", "values": [
      {"measurement": "MIC", "setting": "C. neoformans H99 strain [1]", "result": "> 100", "unit": "µM"},
      {"measurement": "Growth inhibition of C. neoformans in the presence of 1 mM CuSO4", "setting": "C. neoformans H99 strain [4]", "result": "does not inhibit growth"},
      {"measurement": "MIC", "setting": "C. neoformans H99 strain [4]; [12]", "result": "> 100", "unit": "µM"}
    ]},
    {"smiles": "Oc1cccc2cccnc12", "note": "[8HQ, 8-hydroxyquinoline]", "values": [
      {"measurement": "C. neoformans growth with Cu, without H2O2", "setting": "C. neoformans H99 strain [1]; 50 h at 30° C.", "result": "inhibits growth"},
      {"measurement": "Colony-forming units (CFUs) after 50 h", "setting": "C. neoformans H99 strain [8]", "result": "absence of CFUs"},
      {"measurement": "MT1 induction, compound alone", "setting": "[2]", "result": "do not cause robust induction of MT1"},
      {"measurement": "MT1 levels, 8HQ+Cu", "setting": "[2]; 8HQ+Cu (10 pM each)", "result": "MT1 levels greater than what is seen with 100 μM CuSO4 alone"},
      {"measurement": "Growth of transporter mutant on addition of 8HQ", "setting": "[9]", "result": "promotes growth"},
      {"measurement": "8HQ concentration at which growth defect begins", "setting": "[10]", "result": 6.25, "unit": "µM"},
      {"measurement": "Concentration above which S. aureus growth is inhibited", "setting": "S. aureus", "result": "~150", "unit": "µM"},
      {"measurement": "Concentration above which E. coli growth is inhibited", "setting": "E. coli", "result": "~1.5", "unit": "mM"},
      {"measurement": "C. neoformans growth (OD600), compound tested individually", "setting": "C. neoformans H99 strain [4]; 100 μM 8HQ alone, SC media, 50 hours", "result": "not affected"},
      {"measurement": "MIC", "setting": "C. neoformans H99 strain [4]; read-out: MIC (no Cu added), growth inhibition of C. neoformans, no Cu added", "result": "> 100", "unit": "µM"},
      {"measurement": "MIC", "setting": "C. neoformans H99 strain [4]; read-out: MIC (with added Copper(II) Sulfate), growth inhibition of C. neoformans, * 10 M Cu2+", "result": 5, "unit": "µM"},
      {"measurement": "MIC", "setting": "C. neoformans H99 strain [4]; read-out: MIC of 8HQ with supplemental Cu, 10 μM supplemental Cu (CuSO4)", "result": 5, "unit": "µM"},
      {"measurement": "MIC", "setting": "C. neoformans H99 strain [4]; read-out: MIC of 8HQ with supplemental iron, 10 μM supplemental iron", "result": 50, "unit": "µM"},
      {"measurement": "MIC", "setting": "C. neoformans H99 strain [4]; read-out: MIC of 8HQ with supplemental silver, 10 μM supplemental silver", "result": 25, "unit": "µM"},
      {"measurement": "MIC", "setting": "C. neoformans H99 strain [4]; read-out: MIC of 8HQ with supplemental zinc, 10 μM supplemental zinc", "result": 50, "unit": "µM"},
      {"measurement": "IC50, cell viability of J774A.1 cells", "setting": "[6]; medium supplemented with 10 μM CuSO4", "result": "sub-μM"},
      {"measurement": "pIC50", "setting": "[6]; read-out: IC50, cell viability of J774A.1 cells, no supplemental Cu", "result": "~5.30"}
    ]},
    {"smiles": "Cc1cc(-c2ccc(S(=O)(=O)O)cc2)c2ccc3c(-c4ccc(S(=O)(=O)O)cc4)cc(C)nc3c2n1", "note": "[BCS]", "values": [
      {"measurement": "Change in MT1 expression, control chelator", "setting": "[2]", "result": "does not lead to a change in MT1 expression"}
    ]},
    {"smiles": "O=S(=O)([O-])[O-].[Cu+2]", "note": "[copper, Copper(II) Sulfate]", "values": [
      {"measurement": "C. neoformans growth (OD600), copper tested individually", "setting": "C. neoformans H99 strain [4]; 1 mM copper alone, SC media, 50 hours", "result": "not affected"}
    ]}
  ]
}
